# From patent US6525001B1, “Substituted pyrimidine and pyridine herbicides” (Mid-American Commercialization Corporation, priority 1997, dated 2003)
# Key:
# Type in all cases: in vivo
# Set-up in all cases: key: 0 is no effect; 10 is complete control
# [1] = test system: bedstraw (Galium aparine); assay: Test B pre-/postemergence
# Description: (§1) Seeds of bedstraw (Galium aparine), blackgrass (Alopecurus myosuroides), broadleaf signalgrass (Brachiaria decumbens), cocklebur (Xanthium strumarium), corn (Zea mays), crabgrass (Digitaria sanguinalis), giant foxtail (Setaria faberii), lambsquarters (Chenopodium album), momingglory (Ipomoea hederacea), pigweed (Amaranthus retroflexus), rape (Brassica napus), soybean (Glycine max), sugar beet (Beta vulgaris), velvetleaf (Abutilon theophrasti), wheat (Triticum aestivum), wild oat (Avena fatua) and purple nutsedge (Cyperus rotundus) tubers were planted and treated preemergence with test chemicals formulated in a non-phytotoxic solvent mixture which included a surfactant.
# (§2) At the same time, these crop and weed species were also treated with postemergence applications of test chemicals formulated in the same manner. Plants ranged in height from 2 to 18 cm (1- to 4-leaf stage) for postemergence treatments. Plant species in the flood test consisted of rice (Oryza sativa), smallflower flatsedge (Cyperus difformis), duck salad (Heteranthera limosa) and bamyardgrass (Echinochloa crus-galli) grown to the 2-leaf stage for testing. Treated plants and controls were maintained in a greenhouse for twelve to sixteen days, after which all species were compared to controls and visually evaluated. Plant response ratings, summarized in Table B, are based on a scale of 0 to 10 where 0 is no effect and 10 is complete control. A dash (−) response means no test result.
# [2] = test system: blackgrass (Alopecurus myosuroides); assay: Test B pre-/postemergence
# Description: as §1, §2
# [3] = test system: broadleaf signalgrass (Brachiaria decumbens); assay: Test B pre-/postemergence
# Description: as §1, §2
# [4] = test system: cocklebur (Xanthium strumarium); assay: Test B pre-/postemergence; conditions: for Plant response rating, Cocklebur: Postemergence; for Cocklebur plant response rating: Preemergence
# Description: as §1, §2
# corn (Zea mays) = assay: Test B pre-/postemergence
# Description: as §1, §2
# [5] = test system: crabgrass (Digitaria sanguinalis); assay: Test B pre-/postemergence
# Description: as §1, §2
# [6] = test system: giant foxtail (Setaria faberii); assay: Test B pre-/postemergence
# Description: as §1, §2
# [7] = test system: momingglory (Ipomoea hederacea); assay: Test B pre-/postemergence
# Description: as §1, §2
# [8] = test system: pigweed (Amaranthus retroflexus); assay: Test B pre-/postemergence
# Description: as §1, §2
# [9] = test system: purple nutsedge (Cyperus rotundus); assay: Test B pre-/postemergence
# Description: as §1, §2
# rape (Brassica napus) = assay: Test B pre-/postemergence
# Description: as §1, §2
# soybean (Glycine max) = assay: Test B pre-/postemergence
# Description: as §1, §2
# [10] = test system: sugar beet (Beta vulgaris); assay: Test B pre-/postemergence
# Description: as §1, §2
# [11] = test system: velvetleaf (Abutilon theophrasti); assay: Test B pre-/postemergence
# Description: as §1, §2
# [12] = test system: wheat (Triticum aestivum); assay: Test B pre-/postemergence
# Description: as §1, §2
# wild oat (Avena fatua) = assay: Test B pre-/postemergence
# Description: as §1, §2
# [13] = test system: bamyardgrass (Echinochloa crus-galli); assay: Test B flood test
# Outline: (§3)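 Read-out is a visual response score from 0 (no effect) to 10 (complete control), assigned by comparison with untreated controls. Treatment was applied at the 2-leaf stage, and plants stayed in the greenhouse for twelve to sixteen days before scoring.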
# [14] = test system: duck salad (Heteranthera limosa); assay: Test B flood test
# Outline: as §3
# rice (Oryza sativa) = assay: Test B flood test
# Outline: as §3
# [15] = test system: smallflower flatsedge (Cyperus difformis); assay: Test B flood test
# Outline: as §3
# [16] = Rate 62 g/ha, Postemergence (flood test)
# [17] = Rate 125 g/ha, Postemergence, flood test
# [18] = Rate 250 g/ha, Postemergence (flood test species)
smiles,measurement,setting,value
COC(c1cccc(C(F)(F)F)c1)c1nc(-c2ccc(C(F)(F)F)cc2)ncc1C (racemic) [Compound 20],"Plant response rating, Bedstraw","[1]; Rate 62 g/ha, Postemergence",4
same,Bedstraw plant response rating,"[1]; Rate 62 g/ha, Preemergence",0
same,"Plant response rating, Bedstraw","[1]; Rate 125 g/ha, Postemergence",4
same,Bedstraw plant response rating,"[1]; Rate 125 g/ha, Preemergence",0
same,"Plant response rating, Bedstraw","[1]; Rate 250 g/ha, Postemergence",4
same,"Plant response rating, Bedstraw","[1]; Rate 250 g/ha, Preemergence",1
same,"Plant response rating, Blackgrass","[2]; Rate 62 g/ha, Postemergence",2
same,Blackgrass plant response rating,"[2]; Rate 62 g/ha, Preemergence",1
same,"Plant response rating, Blackgrass","[2]; Rate 125 g/ha, Postemergence",2
same,Blackgrass plant response rating,"[2]; Rate 125 g/ha, Preemergence",2
same,"Plant response rating, Blackgrass","[2]; Rate 250 g/ha, Postemergence",3
same,"Plant response rating, Blackgrass","[2]; Rate 250 g/ha, Preemergence",4
same,"Plant response rating, B. signalgrass","[3]; Rate 62 g/ha, Postemergence",2
same,B. signalgrass plant response rating,"[3]; Rate 62 g/ha, Preemergence",0
same,"Plant response rating, B. signalgrass","[3]; Rate 125 g/ha, Postemergence",2
same,B. signalgrass plant response rating,"[3]; Rate 125 g/ha, Preemergence",1
same,"Plant response rating, B. signalgrass","[3]; Rate 250 g/ha, Postemergence",3
same,"Plant response rating, B. signalgrass","[3]; Rate 250 g/ha, Preemergence",4
same,"Plant response rating, Cocklebur",[4]; Rate 62 g/ha,4
same,Cocklebur plant response rating,[4]; Rate 62 g/ha,0
same,"Plant response rating, Cocklebur",[4]; Rate 125 g/ha,5
same,Cocklebur plant response rating,[4]; Rate 125 g/ha,0
same,"Plant response rating, Cocklebur",[4]; Rate 250 g/ha,7
same,"Plant response rating, Corn","corn (Zea mays); Rate 62 g/ha, Postemergence",3
same,Corn plant response rating,"corn (Zea mays); Rate 62 g/ha, Preemergence",0
same,"Plant response rating, Corn","corn (Zea mays); Rate 125 g/ha, Postemergence",3
same,Corn plant response rating,"corn (Zea mays); Rate 125 g/ha, Preemergence",0
same,"Plant response rating, Corn","corn (Zea mays); Rate 250 g/ha, Postemergence",3
same,"Plant response rating, Corn","corn (Zea mays); Rate 250 g/ha, Preemergence",0
same,"Plant response rating, Crabgrass","[5]; Rate 62 g/ha, Postemergence",2
same,Crabgrass plant response rating,"[5]; Rate 62 g/ha, Preemergence",0
same,"Plant response rating, Crabgrass","[5]; Rate 125 g/ha, Postemergence",3
same,Crabgrass plant response rating,"[5]; Rate 125 g/ha, Preemergence",1
same,"Plant response rating, Crabgrass","[5]; Rate 250 g/ha, Postemergence",3
same,"Plant response rating, Crabgrass","[5]; Rate 250 g/ha, Preemergence",2
same,"Plant response rating, Giant foxtail","[6]; Rate 62 g/ha, Postemergence",2
same,Giant foxtail plant response rating,"[6]; Rate 62 g/ha, Preemergence",0
same,"Plant response rating, Giant foxtail","[6]; Rate 125 g/ha, Postemergence",2
same,Giant foxtail plant response rating,"[6]; Rate 125 g/ha, Preemergence",0
same,"Plant response rating, Giant foxtail","[6]; Rate 250 g/ha, Postemergence",3
same,"Plant response rating, Giant foxtail","[6]; Rate 250 g/ha, Preemergence",1
same,"Plant response rating, Morningglory","[7]; Rate 62 g/ha, Postemergence",3
same,Morningglory plant response rating,"[7]; Rate 62 g/ha, Preemergence",0
same,"Plant response rating, Morningglory","[7]; Rate 125 g/ha, Postemergence",4
same,Morningglory plant response rating,"[7]; Rate 125 g/ha, Preemergence",0
same,"Plant response rating, Morningglory","[7]; Rate 250 g/ha, Postemergence",4
same,"Plant response rating, Morningglory","[7]; Rate 250 g/ha, Preemergence",0
same,"Plant response rating, Redroot pigweed","[8]; Rate 62 g/ha, Postemergence",5
same,Redroot pigweed plant response rating,"[8]; Rate 62 g/ha, Preemergence",0
same,"Plant response rating, Redroot pigweed","[8]; Rate 125 g/ha, Postemergence",7
same,Redroot pigweed plant response rating,"[8]; Rate 125 g/ha, Preemergence",0
same,"Plant response rating, Redroot pigweed","[8]; Rate 250 g/ha, Postemergence",8
same,"Plant response rating, Redroot pigweed","[8]; Rate 250 g/ha, Preemergence",1
same,"Plant response rating, Nutsedge","[9]; Rate 62 g/ha, Postemergence",0
same,Nutsedge plant response rating,"[9]; Rate 62 g/ha, Preemergence",0
same,"Plant response rating, Nutsedge","[9]; Rate 125 g/ha, Postemergence",0
same,"Plant response rating, Nutsedge","[9]; Rate 250 g/ha, Postemergence",0
same,"Plant response rating, Nutsedge","[9]; Rate 250 g/ha, Preemergence",0
same,"Plant response rating, Rape","rape (Brassica napus); Rate 62 g/ha, Postemergence",3
same,Rape plant response rating,"rape (Brassica napus); Rate 62 g/ha, Preemergence",0
same,"Plant response rating, Rape","rape (Brassica napus); Rate 125 g/ha, Postemergence",4
same,Rape plant response rating,"rape (Brassica napus); Rate 125 g/ha, Preemergence",0
same,"Plant response rating, Rape","rape (Brassica napus); Rate 250 g/ha, Postemergence",5
same,"Plant response rating, Rape","rape (Brassica napus); Rate 250 g/ha, Preemergence",0
same,"Plant response rating, Soybean","soybean (Glycine max); Rate 62 g/ha, Postemergence",4
same,Soybean plant response rating,"soybean (Glycine max); Rate 62 g/ha, Preemergence",0
same,"Plant response rating, Soybean","soybean (Glycine max); Rate 125 g/ha, Postemergence",5
same,Soybean plant response rating,"soybean (Glycine max); Rate 125 g/ha, Preemergence",0
same,"Plant response rating, Soybean","soybean (Glycine max); Rate 250 g/ha, Postemergence",6
same,"Plant response rating, Soybean","soybean (Glycine max); Rate 250 g/ha, Preemergence",0
same,"Plant response rating, Sugarbeets","[10]; Rate 62 g/ha, Postemergence",3
same,Sugarbeets plant response rating,"[10]; Rate 62 g/ha, Preemergence",0
same,"Plant response rating, Sugarbeets","[10]; Rate 125 g/ha, Postemergence",5
same,Sugarbeets plant response rating,"[10]; Rate 125 g/ha, Preemergence",0
same,"Plant response rating, Sugarbeets","[10]; Rate 250 g/ha, Postemergence",7
same,"Plant response rating, Sugarbeets","[10]; Rate 250 g/ha, Preemergence",2
same,"Plant response rating, Velvetleaf","[11]; Rate 62 g/ha, Postemergence",4
same,Velvetleaf plant response rating,"[11]; Rate 62 g/ha, Preemergence",0
same,"Plant response rating, Velvetleaf","[11]; Rate 125 g/ha, Postemergence",6
same,Velvetleaf plant response rating,"[11]; Rate 125 g/ha, Preemergence",0
same,"Plant response rating, Velvetleaf","[11]; Rate 250 g/ha, Postemergence",7
same,"Plant response rating, Velvetleaf","[11]; Rate 250 g/ha, Preemergence",0
same,"Plant response rating, Wheat","[12]; Rate 62 g/ha, Postemergence",2
same,Wheat plant response rating,"[12]; Rate 62 g/ha, Preemergence",0
same,"Plant response rating, Wheat","[12]; Rate 125 g/ha, Postemergence",3
same,Wheat plant response rating,"[12]; Rate 125 g/ha, Preemergence",0
same,"Plant response rating, Wheat","[12]; Rate 250 g/ha, Postemergence",3
same,"Plant response rating, Wheat","[12]; Rate 250 g/ha, Preemergence",0
same,"Plant response rating, Wild oats","wild oat (Avena fatua); Rate 62 g/ha, Postemergence",2
same,Wild oats plant response rating,"wild oat (Avena fatua); Rate 62 g/ha, Preemergence",1
same,"Plant response rating, Wild oats","wild oat (Avena fatua); Rate 125 g/ha, Postemergence",3
same,Wild oats plant response rating,"wild oat (Avena fatua); Rate 125 g/ha, Preemergence",2
same,"Plant response rating, Wild oats","wild oat (Avena fatua); Rate 250 g/ha, Postemergence",3
same,"Plant response rating, Wild oats","wild oat (Avena fatua); Rate 250 g/ha, Preemergence",3
same,"Plant response rating, Barnyardgrass",[13]; [16],0
same,"Plant response rating, Barnyardgrass",[13]; [17],0
same,"Plant response rating, Barnyardgrass",[13]; [18],0
same,"Plant response rating, Ducksalad",[14]; [16],0
same,"Plant response rating, Ducksalad",[14]; [17],0
same,"Plant response rating, Ducksalad",[14]; [18],0
same,"Plant response rating, Rice",rice (Oryza sativa); [16],0
same,"Plant response rating, Rice",rice (Oryza sativa); [17],0
same,"Plant response rating, Rice",rice (Oryza sativa); [18],0
same,"Plant response rating, S. Flatsedge",[15]; [16],0
same,"Plant response rating, S. Flatsedge",[15]; [17],0
same,"Plant response rating, S. Flatsedge",[15]; [18],0
